In publication PMC7096397, “Improving the drug-likeness of inspiring natural products - evaluation of the antiparasitic activity against Trypanosoma cruzi through semi-synthetic and simplified analogues of licarin A” (Scientific Reports, 2020):
Where two headings read alike, the source gives them in different places.

Columns and labels:
[1] = tested on: T. cruzi intracellular amastigotes; assay: Anti-amastigote assay in infected peritoneal macrophages (infection index); type: cell-based, Trypanosoma cruzi; details: 48 h, read-out: IC50 Ama
Description: (§1) The cells and parasites were kept at 37 °C in a humidified atmosphere containing 5% CO2.
The cells were plated on a 16-well chamber slide – NUNC (Thermo Fisher Scientific) at 1 × 10^5 cells/well and incubated for 24 h at 37 °C in a 5% CO2 humidified incubator. […] Tested compounds were subsequently incubated with infected macrophages for 48 h at 37 °C (5% CO2 humidified incubator) in different nontoxic concentrations. Benznidazole was used as standard drug. At the end of the assay, slides were fixed with MeOH and stained with Giemsa, counted under a light microscope (EVOS M5000, Thermo, USA) and IC50 values were determined by the infection index.
(§2) IC50 and CC50 values were calculated using a sigmoid dose-response curves in Graph–Pad Prism 5.0 software (GraphPad Software - San Diego, CA, USA). For the mechanism of action studies one-way ANOVA (Turkey’s Multiple Comparison test) was used for significance (p < 0.05). The assays were repeated at least twice and the samples were tested in duplicate.

[2] = Cytotoxicity against mammalian cells (MTT); type: cell-based, Murine; details: mouse, NCTC clone L929 cells
Description: Rhesus monkey kidney cells (LLC-MK2-ATCC CCL 7) were used for the maintenance of trypomastigotes of T. cruzi (Y strain) using RPMI-1640 medium supplemented with 2% fetal bovine serum (FBS). The cells and parasites were kept at 37 °C in a humidified atmosphere containing 5% CO2. Peritoneal macrophages, used in the experiments of anti-amastigote assay, were obtained by washing the peritoneal cavity of BALB/c mice, with RPMI-1640 medium supplemented with 10% FBS and kept at 37 °C in a 5% CO2 humidified incubator. Murine conjunctive cells (NCTC clone 929, ATCC) and LLC-MK2 were kept in RPMI-1640 supplemented with 10% FBS at the same conditions described above.
NCTC cells-clone L929 (6 × 10^4 cells/well) were seeded and incubated with tested compounds (200–1.56 µM) for 48 h at 37 °C in a 5% CO2 humidified incubator. Cytotoxic concentration (CC50) was determined by MTT assay. Optical density was determined in FilterMax F5 (Molecular Devices) at 570 nm. Selectivity Index (SI) was determined using the following ratio: CC50 against NCTC cells/IC50 against parasites.
as §2

[3] = tested on: T. cruzi (Y strain) trypomastigotes; assay: Anti-trypomastigote assay (resazurin viability); type: cell-based, Trypanosoma cruzi; details: for IC50: read-out: IC50 trypo
Description: as §1
Benznidazole was used as the standard drug. The optical density was determined in FilterMax F5 (Molecular Devices) at 570 nm[38].
as §2

[4] = PAMPA intestinal model (GIT); type: in vitro ADME
Description: Intestinal permeability of tested compounds was estimated applying the PAMPA model previously developed and validated. Briefly, stock solutions were prepared in dimethyl sulfoxide (DMSO) at the concentrations of 10 mM and then diluted with Tris buffer to give the final concentration donor solution at 300 µM and 5% DMSO. The assay procedure was initiated by filling each well of the microtiter plate (MultiScreen, catalogue no. MATRNPS50, Millipore Corporation, Bedford, MA, USA) with 300 μL of each donor drug solution. Carefully, and avoiding the pipette tip contact with the filter, the hydrophobic filter (0.45 μm) of each acceptor well of the 96-well microfilter plate (MultiScreen-IP, catalogue no. MAIPNTR10, Millipore Corporation, Bedford, MA, USA) was adsorbed with 6 μL of the artificial lipid solution which was composed of 2% of L-α-phosphatidylcholine from soybean dissolved, by sonication, in n-dodecane. Immediately after this application, 150 μL of Tris buffer containing 5% DMSO was added to the receiving well. The receiving well was mounted on the donor plate, keeping the underside of the membrane in contact with the donor solution. The assembled donor–acceptor plates were incubated under constant stirring (3 g) at 25 °C for approximately 16 h. Subsequently, the quantity of each compound presented at the receptor solution (150 μL) was determined by UV/VIS spectrophotometrically.

[5] = PAMPA-BBB model; type: in vitro ADME
Description: The methodology herein applied was similar to that described in the previous section, however with the purpose of assessing the permeability of the compounds through the blood brain barrier (BBB). Thus, stock solutions (10 mM) of each test compound were prepared in DMSO and diluted with phosphate buffered saline (PBS) at pH 7.4. The final concentration of donor solutions was 300 μM and DMSO of 5%. Artificial membrane lipid solutions were prepared daily by dissolving, in n-dodecane, the porcine brain lipid extracted as described[40] at the final concentration of 2% (m/v). PAMPA procedure was similar to that described in the previous section although, in PAMPA-BBB, the donor and acceptor solutions were prepared using phosphate buffer saline (PBS) at pH 7.4 and the Papp was obtained through the equation previously reported.

[6] = tested on: T. cruzi trypomastigotes; assay: Reactive oxygen species (ROS) generation, H2DCFDA probe; type: cell-based, Trypanosoma cruzi; details: at IC50, 1 h of treatment
Description: After, H2DCFDA probe (Molecular Probes) was added (5 µM) and incubated by 15 min[44]. The fluorescence intensity was measure using a fluorimetric microplate reader (FilterMax F5 Multi-Mode, Molecular Devices) with excitation and emission wavelengths of 485 and 520 nm, respectively. Azide (10 mM) was used as positive control and untreated parasites were used as negative control.

[7] = tested on: T. cruzi trypomastigotes; assay: Mitochondrial membrane potential, JC-1 flow cytometry; type: cell-based, Trypanosoma cruzi; details: at IC50, 2 h
Description: The ΔΨm were analyzed by flow cytometry (Attune NxT flow cytometer - ThermoFisher) with the probe 5,5′,6,6′-tetrachloro-1,1′,3,3′-tetraethylbenzimidazole carbocyanide iodide (JC-1, ThermoFisher). The ratio between red/green fluorescence intensities (BL-2/BL-1; 590 nm/530 nm) were calculated[45],[46]. […] The parasites were incubated in the dark for 10 min at 37 °C and washed in HBSS + Glu to eliminate the non-internalized dye. As internal controls of the assay were used: (i) non-treated cells and (ii) trypomastigotes treated with 100 μM CCCP.

[8] = Trypanosoma cruzi, Peritoneal macrophage, in Mus musculus, intracellular amastigotes in BALB/c peritoneal macrophages
[9] = Trypanosoma cruzi, T. cruzi trypomastigotes, 24 h incubation, resazurin
[10] = PAMPA intestinal model, 300 µM donor, Tris buffer, 25 °C, 16 h, read-out: Papp GIT
[11] = PAMPA-BBB model, 300 µM donor, PBS pH 7.4, read-out: Papp BBB

| IC50 [1, 8] [µM] | IC50 [3, 9] [µM] | Papp at 16 h, 300 µM ([4]; PAMPA) [×10⁻⁶ cm/s] | Papp at 16 h, 300 µM ([5]; PAMPA, pH 7.4) [×10⁻⁶ cm/s] | Molecule | CC50 at 48 h [2] [µM] | further results |
| --- | --- | --- | --- | --- | --- | --- |
| > 100 | 28 ± 10.2 | 0.42 | 4.26 | C/C=C/c1cc(OC)c2c(c1)[C@H](C)[C@@H](c1ccc(OC)c(OC)c1)O2 [1a, (2S,3 S)-2-(3,4-dimethoxyphenyl)-7-methoxy-3-methyl-5-[(E)-prop-1-enyl]-2,3-dihydrobenzo-furan] | > 200 |  |
| > 100 | 17.9 ± 2.9 | 1.02 | 0.34 | C/C=C/c1cc(OC)c2c(c1)[C@H](C)[C@@H](c1ccc(OC(C)=O)c(OC)c1)O2 [1b, [2-methoxy-4-[(2S,3 S)-7-methoxy-3-methyl-5-[(E)-prop-1-enyl]-2,3-dihydrobenzofuran-2-yl]phenyl] acetate] | 67.2 ± 24.6 |  |
| > 100 | > 100 | 0.43 | 0.24 | C=CCOc1ccc([C@H]2Oc3c(OC)cc(/C=C/C)cc3[C@@H]2C)cc1OC [1c, (2S,3 S)-2-(4-allyloxy-3-methoxy-phenyl)-7-methoxy-3-methyl-5-[(E)-prop-1-enyl]-2,3-dihydrobenzofuran] | > 200 |  |
| 5.6 ± 0.3 | > 100 | 17.4 | 4.7 | COc1cc(C=O)ccc1OC(C)=O [2b, (4-formyl-2-methoxy-phenyl) acetate] | > 200 | fraction unbound at 16 h, 300 µM [4]: < 0.1 |
| > 100 | > 100 | 1.6 | 5.35 | C=CCOc1ccc(C=O)cc1OC [2c, 4-allyloxy-3-methoxy-benzaldehyde] | > 200 |  |
| > 100 | > 100 | 1.57 | 1.25 | C=CCc1cc(C=O)cc(OC)c1O [2d, 3-allyl-4-hydroxy-5-methoxy-benzaldehyde] | > 200 |  |
| > 100 | > 100 |  |  | COc1ccc(CO)cc1OC [3a, (3,4-dimethoxyphenyl)methanol] | > 200 | Papp at 16 h, 300 µM [4, 10]: 2.22 ×10⁻⁶ cm/s; Papp at 16 h, 300 µM [5, 11]: 2.18 ×10⁻⁶ cm/s |
| > 100 | > 100 | 1.9 | 4.74 | C=CCOc1ccc(CO)cc1OC [3c, (4-allyloxy-3-methoxy-phenyl)methanol] | > 200 |  |
| > 100 | > 100 | 3.47 | 3.47 | C=CCc1cc(CO)cc(OC)c1O [3d, 2-allyl-4-(hydroxymethyl)-6-methoxy-phenol] | > 200 | ROS generation [6]: increased the reactive oxygen species (ROS) levels; mitochondrial membrane potential [7]: induced hyperpolarization of mitochondrial membrane potential |
| > 100 | 54.6 ± 10.2 | 15 | 1.32 | C/C=C/c1ccc(OC(C)=O)c(OC)c1 [4b, [2-methoxy-4-[(E)-prop-1-enyl]phenyl] acetate] | > 200 | fraction unbound at 16 h, 300 µM [4]: < 0.1 |
| > 100 | > 100 | 0.13 | 0.2 | C=CCOc1ccc(/C=C/C)cc1OC [4c, 1-allyloxy-2-methoxy-4-[(E)-prop-1-enyl]benzene] | > 200 | anti-T. cruzi activity (in words) ([3]; Table 1 assays): did not display activity |
| 10.4 ± 0.9 | 21.2 ± 3.7 | 1.2 | 0.74 | C=CCc1cc(/C=C/C)cc(OC)c1O [4d, 2-allyl-6-methoxy-4-[(E)-prop-1-enyl]phenol] | > 200 |  |
|  |  |  |  | C=CCc1ccc(OC)c(OC)c1 [5a, 4-allyl-1,2-dimethoxy-benzene] | > 200 | IC50 ([1]; Trypanosoma cruzi, Peritoneal macrophage, in Mus musculus): > 100 µM; IC50 ([3]; Trypanosoma cruzi, 24 h): > 100 µM; Papp at 16 h, 300 µM [4, 10]: 2.35 ×10⁻⁶ cm/s; Papp at 16 h, 300 µM [5, 11]: 1.56 ×10⁻⁶ cm/s |
| > 100 | > 100 | 2.81 | 2.28 | C=CCc1ccc(OC(C)=O)c(OC)c1 [5b, (4-allyl-2-methoxy-phenyl) acetate] | > 200 |  |
| > 100 | > 100 | 1.21 | 0.32 | C=CCOc1ccc(CC=C)cc1OC [5c, 4-allyl-1-allyloxy-2-methoxy-benzene] | > 200 |  |
| > 100 | > 100 | 0.65 | 0.32 | C=CCc1cc(CC=C)c(O)c(OC)c1 [5d, 2,4-diallyl-6-methoxy-phenol] | > 200 |  |
| 18.7 ± 2.6 | 5.5 ± 0.9 |  |  | O=C(Cn1ccnc1[N+](=O)[O-])NCc1ccccc1 [Bnz, benznidazole, reference compound] | > 200 |  |
| > 100 | > 100 | 0.18 | 0.64 | COc1cc(CO)ccc1O [compound 3, vanillyl alcohol] | > 200 |  |
|  |  |  |  | isoeugenol [compound 4] |  | IC50 ([1]; intracellular amastigotes in BALB/c peritoneal macrophages): > 100 µM; IC50 ([3]; T. cruzi trypomastigotes, 24 h incubation, resazurin): 50.7 ± 17.4 µM |

| Molecule | IC50 [1, 8] [µM] | IC50 [3, 9] [µM] | Papp at 16 h, 300 µM ([4]; PAMPA) [×10⁻⁶ cm/s] | Papp at 16 h, 300 µM ([5]; PAMPA, pH 7.4) [×10⁻⁶ cm/s] | CC50 at 48 h [2] [µM] | further results |
| --- | --- | --- | --- | --- | --- | --- |
| C/C=C/c1cc(OC)c2c(c1)[C@H](C)[C@@H](c1ccc(O)c(OC)c1)O2 [compound 1, Licarin A] | > 100 | 54.3 ± 8.9 | 0.85 | 2.37 | > 200 |  |
| COc1cc(C=O)ccc1O [compound 2, vanillin] | 5.5 ± 0.6 | > 100 |  |  | > 200 | Papp at 16 h, 300 µM [4, 10]: 1.41 ×10⁻⁶ cm/s; Papp at 16 h, 300 µM [5, 11]: 6.15 ×10⁻⁶ cm/s |
